Measured values: patent US7414047B2, “Piperazinyl and diazapanyl benzamides and benzthioamides” (Janssen Pharmaceutica N.V., priority 2002, dated 2008)
Counter-ions that a name gives are not always drawn. Like-named read-outs stand apart in the source and are kept apart here.

Target: T1, human histamine H3 receptor (Homo sapiens, UniProt Q9Y5N1)
T1 construct: One microgram of supercoiled H3 receptor cDNA was added to the cells and mixed; expressed in transfected cells; membranes prepared from cell pellets
Experiment: {3H}-N-methylhistamine binding
Procedure: Transfection of Cells with Human Histamine Receptor
A 10 cm tissue culture dish with a confluent monolayer of SK-N-MC cells was split two days prior to transfection. Using sterile technique the media was removed and the cells were detached from the dish by the addition of trypsin. One fifth of the cells were then placed onto a new 10 cm dish. Cells were grown in a 37° C. incubator with 5% CO2 in Minimal Essential Media Eagle with 10%. Fetal Bovine Serum. After two days cells were approximately 80% confluent. These were removed from the dish with trypsin and pelleted in a clinical centrifuge. The pellet was then re-suspended in 400 μL complete media and transferred to an electroporation cuvette with a 0.4 cm gap between the electrodes. One microgram of supercoiled H3 receptor cDNA was added to the cells and mixed. The voltage for the electroporation was set at 0.25 kV, the capacitance was set at 960 μF. After electroporation the cells were diluted into 10 mL complete media and plated onto four 10 cm dishes. Because of the variability in the efficiency of electroporation, four different concentrations of cells were plated. The ratios used were; 1:20, 1:10, 1:5, with the remainder of the cells being added to the fourth dish. […] After 10 days dishes were analyzed for surviving colonies of cells. Dishes with well-isolated colonies were used. Cells from individual colonies were isolated and tested. SK-N-MC cells were used because they give efficient coupling for inhibition of adenylate cyclase. The clones that gave the most robust inhibition of adenylate cyclase in response to histamine were used for further study.
{^3H}-N-methylhistamine Binding
Cell pellets from histamine H3 receptor-expressing SK-N-MC cells were homogenized in 20 mM TrisHCl/0.5 mM EDTA. Supernatants from an 800 g spin were collected, recentrifuged at 30,000 g for 30 min. Pellets were re-homogenized in 50 mM Tris/5 mM EDTA (pH 7.4). […] Filters were dried, added to 4 mL scintillation cocktail and then counted on a liquid scintillation counter. Non-specific binding was defined with 10 μM histamine.

T1 sequence (Q9Y5N1 whole entry): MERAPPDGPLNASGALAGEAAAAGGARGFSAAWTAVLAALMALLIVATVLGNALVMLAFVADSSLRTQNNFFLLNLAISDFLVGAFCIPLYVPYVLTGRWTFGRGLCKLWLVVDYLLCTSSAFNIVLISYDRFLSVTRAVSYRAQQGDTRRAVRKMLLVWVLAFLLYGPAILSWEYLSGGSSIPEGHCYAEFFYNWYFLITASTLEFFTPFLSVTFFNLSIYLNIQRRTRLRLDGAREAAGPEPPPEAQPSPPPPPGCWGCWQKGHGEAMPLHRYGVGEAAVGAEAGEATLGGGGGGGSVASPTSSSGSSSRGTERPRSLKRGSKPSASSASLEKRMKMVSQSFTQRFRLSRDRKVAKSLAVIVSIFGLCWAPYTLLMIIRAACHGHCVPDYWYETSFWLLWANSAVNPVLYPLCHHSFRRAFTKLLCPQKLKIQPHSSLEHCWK

Row | SMILES | Ki [nM] | Ki (membranes of histamine H3 receptor-expressing SK-N-MC cells, 0.8 nM {3H}-N-methylhistamine, 45 min at 25° C., […]) [nM]
1 | CCC(C)N1CCN(C(=O)c2ccc(CNc3ccccc3)cc2)CC1 (stereo not shown) [Example 29, (4-sec-Butyl-piperazin-1-yl)-(4-phenylaminomethyl-phenyl)-methanone] | 38 | –
2 | CCCCN1CCN(C(=O)c2ccc(CN(C)C)cc2)CC1 [Example 30, (4-Butyl-piperazin-1-yl)-(4-dimethylaminomethyl-phenyl)-methanone] | 18 | –
3 | CCCCN1CCN(C(=O)c2ccc(CNc3ccc(C(F)(F)F)cc3)cc2)CC1 [Example 31, (4-Butyl-piperazin-1-yl)-{4-{(4-trifluoromethyl-phenylamino)-methyl}-phenyl}-methanone] | 630 | –
4 | CCCCCCC(C)N1CCN(C(=O)c2ccc(CN3CCOCC3)cc2)CC1 (stereo not shown) [Example 32, {4-(1-Methyl-heptyl)-piperazin-1-yl}-(4-morpholin-4-ylmethyl-phenyl)-methanone] | 130 | –
5 | CCCCCCC(C)N1CCN(C(=O)c2ccc(CN3CCCCC3)cc2)CC1 (stereo not shown) [Example 33, {4-(1-Methyl-heptyl)-piperazin-1-yl}-(4-piperidin-1-ylmethyl-phenyl)-methanone] | 52 | –
6 | CC(C)N1CCN(C(=O)c2ccc(CNc3ccc(C(F)(F)F)cc3)cc2)CC1 [Example 34, (4-Isopropyl-piperazin-1-yl)-{4-{(4-trifluoromethyl-phenylamino)-methyl}-phenyl}-methanone] | 68 | –
7 | CC(C)N1CCN(Cc2ccc(C(=O)N3CCN(C(C)C)CC3)cc2)CC1 [Example 35, (4-Isopropyl-piperazin-1-yl)-{4-(4-isopropyl-piperazin-1-ylmethyl)-phenyl}-methanone] | – | 18
8 | CCCCN1CCN(C(=O)c2ccc(CN3CCCC(C(F)(F)F)C3)cc2)CC1 (stereo not shown) [Example 36, (4-Butyl-piperazin-1-yl)-{4-(3-trifluoromethyl-piperidin-1-ylmethyl)-phenyl}-methanone] | 12 | –
9 | CCCCN1CCN(C(=O)c2ccc(CN3CCOCC3)cc2)CC1 [Example 37, (4-Butyl-piperazin-1-yl)-(4-morpholin-4-ylmethyl-phenyl)-methanone] | 9 | –
10 | CC(C)N1CCN(C(=O)c2cccc(CN3CCOCC3)c2)CC1 [Example 38, (4-Isopropyl-piperazin-1-yl)-(3-morpholin-4-ylmethyl-phenyl)-methanone] | 180 | –
11 | CC(C)N1CCN(C(=O)c2cccc(CN3CCCCC3)c2)CC1 [Example 39, (4-Isopropyl-piperazin-1-yl)-(3-piperidin-1-ylmethyl-phenyl)-methanone] | 35 | –
12 | CC(C)N1CCN(C(=O)c2ccc(CN3CCOCC3)cc2)CC1 [Example 40] | 3 | –
13 | CN1CCN(C(=O)c2cccc(CN3CCC(Cc4ccccc4)CC3)c2)CC1 [Example 42, {3-(4-Benzyl-piperidin-1-ylmethyl)-phenyl}-(4-methyl-piperazin-1-yl)-methanone] | 800 | –
14 | CN1CCN(C(=O)c2ccc(CN3CCOCC3)cc2)CC1 [Example 43, (4-Methyl-piperazin-1-yl)-(4-morpholin-4-ylmethyl-phenyl)-methanone dihydrochloride] | 22 | –
15 | CC(C)N1CCN(C(=O)c2ccc(CNc3cc(C(F)(F)F)ccn3)cc2)CC1 [Example 44, (4-Isopropyl-piperazin-1-yl)-{4-{4-trifluoromethyl-pyridin-2-ylamino)-methyl}-phenyl}-methanone dihydrochloride] | 85 | –
16 | CCC(CC)N1CCN(C(=O)c2ccc(CNc3ccccc3)cc2)CC1 [Example 45, {4-(1-Ethyl-propyl)-piperazin-1-yl}-(4-phenylaminomethyl-phenyl)-methanone dihydrochloride] | 54 | –
17 | CCC(CC)N1CCN(C(=O)c2ccc(CNc3ccc(C(F)(F)F)cc3)cc2)CC1 [Example 47, {4-(1-Ethyl-propyl)-piperazin-1-yl}-{-{4-{(4-trifluoromethyl-phenylamino)-methyl}-phenyl}-methanone dihydrochloride] | 81 | –
18 | CCC(CC)N1CCN(C(=O)c2ccc(CN3CCCC(C(F)(F)F)C3)cc2)CC1 (stereo not shown) [Example 49, {4-(1-Ethyl-propyl)-piperazin-1-yl}-{4-(3-trifluoromethyl-piperidin-1-ylmethyl)-phenyl}-methanone dihydrochloride] | 4 | –
19 | CCC(C)N1CCN(C(=O)c2ccc(CN3CCCC(C(F)(F)F)C3)cc2)CC1 (stereo not shown) [Example 50, (4-sec-Butyl-piperazin-1-yl)-{4-(3-trifluoromethyl-piperidin-1-ylmethyl)-phenyl}-methanone dihydrochloride] | 30 | –
20 | CC(C)N1CCN(C(=O)c2ccc(CNc3ccc(C(F)(F)F)nc3)cc2)CC1 [Example 52, (4-Isopropryl-piperazin-1-yl)-{4-{(6-trifluoromethyl-pyridin-3-ylamino)-methyl}-phenyl}-methanone dihydrochloride] | 14 | –
21 | CC(C)N1CCN(C(=O)c2ccc(CNc3ccc(Cl)cn3)cc2)CC1 [Example 53, {4-{(5-Chloro-pyridin-2-ylamino)-methyl}-phenyl}-4-isopropyl-piperazin-1-yl)-methanone dihydrochloride] | 30 | –
22 | CN1CCN(C(=O)c2ccc(CN3CCCCC3)cc2)CC1 [Example 54, (4-Methyl-piperazin-1-yl)-(4-piperidin-1-ylmethyl-phenyl)-methanone dihydrochloride] | 24 | –
23 | CC(C)N1CCN(C(=O)c2ccc(CNc3ccc(C(F)(F)F)cn3)cc2)CC1 [Example 55, (4-Isopropyl-piperazin-1-yl)-{4-{(5-trifluoromethyl-pyridin-2-ylamino)-methyl}-phenyl}-methanone dihydrochloride] | 49 | –
24 | CCN(CC)Cc1ccc(C(=O)N2CCN(C(C)C)CC2)cc1 [Example 57, (4-Diethylaminomethyl-phenyl)-(4-isopropyl-piperazin-1-yl)-methanone dihydrochloride] | 6 | –

Continued, in another order:

Row | Ki [nM] | SMILES | Ki (membranes of histamine H3 receptor-expressing SK-N-MC cells, 0.8 nM {3H}-N-methylhistamine, 45 min at 25° C., […]) [nM]
25 | 2 | CCC(CC)N1CCN(C(=O)c2ccc(CNCc3ccccc3)cc2)CC1 [Example 20, {4-(Benzylamino-methyl)-phenyl}-{4-(1-ethyl-propyl)-piperazin-1-yl}-methanone] | –
26 | 2 | CCC(CC)N1CCN(C(=O)c2ccc(CN3CCCCCC3)cc2)CC1 [Example 21, (4-Azepan-1-ylmethyl-phenyl)-{4-(1-ethyl-propyl)-piperazin-1-yl}-methanone] | –
27 | 2 | CCC(CC)N1CCN(C(=O)c2ccc(CN3CCC4CCCCC4C3)cc2)CC1 (stereo not shown) [Example 22, {4-(1-Ethyl-propyl)-piperazin-1-yl}-{4-(decahydro-isoguinolin-2-ylmethyl)-phenyl}-methanone] | –
28 | 0.9 | CCC(C)N1CCN(C(=O)c2ccc(CN3CCCCCC3)cc2)CC1 (stereo not shown) [Example 23, (4-Azepan-1-ylmethyl-phenyl)-(4-sec-butyl-piperazin-1-yl)-methanone] | –
29 | 1.5 | CCC(C)N1CCN(C(=O)c2ccc(CN(C)C)cc2)CC1 (stereo not shown) [Example 24, (4-sec-Butyl-piperazin-1-yl)-(4-dimethylaminomethyl-phenyl)-methanone] | –
30 | 1 | CCC(C)N1CCN(C(=O)c2ccc(CN3CCCC3)cc2)CC1 (stereo not shown) [Example 25, (4-sec-Butyl-piperazin-1-yl)-(4-pyrrolidin-1-ylmethyl-phenyl)-methanone] | –
31 | 0.9 | CCC(CC)N1CCN(C(=O)c2ccc(CN3CCCC3)cc2)CC1 [Example 26, {4-(1-Ethyl-propyl)-piperazin-1-yl}-(4-pyrrolidin-1-ylmethyl-phenyl)-methanone] | –
32 | 0.4 | CCC(CC)N1CCN(C(=O)c2ccc(CN3CCCCC3)cc2)CC1 [Example 27, {4-(1-Ethyl-propyl)-piperazin-1-yl}-(4-piperidin-1-ylmethyl-phenyl)-methanone] | –
33 | 0.9 | CCC(C)N1CCN(C(=O)c2ccc(CN3CCCCC3)cc2)CC1 (stereo not shown) [Example 28, (4-sec-Butyl-piperazin-1-yl)-(4-piperidin-1-ylmethyl-phenyl)-methanone] | –
34 | 2 | CCC(CC)N1CCN(C(=O)c2ccc(CN(C)C)cc2)CC1 [Example 46, (4-Dimethylaminomethyl-phenyl)-{4-(1-ethyl-propyl)-piperazin-1-yl}-methanone dihydrochloride] | –
35 | 1 | CCC(CC)N1CCN(C(=O)c2ccc(CN3CCOCC3)cc2)CC1 [Example 48, {4-(1-Ethyl-propyl)-piperazin-1-yl}-(4-morpholin-4-ylmethyl-phenyl)-methanone dihydrochloride] | –
36 | 2 | CCC(C)N1CCN(C(=O)c2ccc(CN3CCOCC3)cc2)CC1 (stereo not shown) [Example 51, (4-sec-Butyl-piperazin-1-yl)-(4-morpholin-4-ylmethyl-phenyl)-methanone dihydrochloride] | –
37 | 1 | CC(C)N1CCN(C(=O)c2ccc(CN3CCCC(C(F)(F)F)C3)cc2)CC1 (stereo not shown) [Example 56, (4-Isopropyl-piperazin-1-yl)-{4-(3-trifluoromethyl-piperidin-1-ylmethyl)-phenyl}-methanone dihydrochloride] | –
